We go through 4 molecules from PMC9612326 (Viruses, 2022).

Peptide text beside a SMILES is read from it.

Data set [1] in a line: Peptide stability in human serum. To be noted: human serum (50% v/v) from a healthy donor.
In data set [2] the target is His-tagged Spike RBD protein (SARS-CoV-2) (UniProt P0DTC2). Put plainly: BLI. In general terms: In BLI a coated tip is dipped into the sample, and binding shifts an interference pattern.

The half-life is the time needed for the level to fall by half in the phase considered. A high value points to slow loss. As to `CC(C)C[C@H](NC(=O)[C@@H](N)[C@@H](C)O)C(=O)N[C@@H](Cc1c[nH]cn1)C(N)=O` [TLH] (H-Thr-Leu-His-NH2), the half-life at 1 mM in data set [1] is 4.36 h.

In data set [1], `CC[C@H](C)[C@H](NC(=O)[C@H](Cc1ccccc1)NC(=O)[C@@H](N)C(C)C)C(N)=O` [VFI] (H-Val-Phe-Ile-NH2) gave a half-life at 1 mM of 12.4 h.

In general, Kd refers to the constant that tells how readily two partners part at equilibrium. Turning to tripeptide TLH, in data set [2], the Kd came to 22.8 µM.

Take tripeptide VFI: in data set [2], the dissociation constant Kd is 28.4 µM.
